These results are taken from patent US20150182434A1, “COSMETIC USE OF NAPTHOIC ACID DERIVATIVES” (Avon Products, Inc., priority 2013, published 2015).

The assay deals with T1, recombinant human (rh) KLK5 (Homo sapiens, UniProt Q9Y337).
T1 construct: purchased R&D Systems 1108-SE
T1 sequence (Q9Y337 23-293): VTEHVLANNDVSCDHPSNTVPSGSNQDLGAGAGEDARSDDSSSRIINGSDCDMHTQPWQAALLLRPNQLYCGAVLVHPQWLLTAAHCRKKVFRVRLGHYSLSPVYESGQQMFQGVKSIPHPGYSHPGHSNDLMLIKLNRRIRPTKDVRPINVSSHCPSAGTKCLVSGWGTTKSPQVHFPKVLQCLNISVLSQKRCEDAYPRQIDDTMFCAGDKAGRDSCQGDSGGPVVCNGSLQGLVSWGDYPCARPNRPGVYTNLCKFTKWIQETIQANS
The assay is described as follows: Enzymatic activity of KLK5 (fluorogenic peptide substrate Boc-V-P-R-AMC). Type of assay: biochemical. Particulars: FIG. 1; for KLK5 activity compared to that of salicylic acid: rhKLK5, rate of enzyme activity relative to salicylic acid. An excerpt: In the stratum corneum, skin's outermost layer, cell-to-cell cohesion depends primarily on proteins known as the corneodesmosomes. During skin remodeling and renewal dead cells are shed from the skin surface by the action of native proteases that break down the corneodesmosomes. […] Hypothetically, up-regulation of the activities of these proteases using different active candidates could be utilized to increase the rate of shedding of dead skin, thus providing a natural means for skin exfoliation. To this end, the enzymatic activity of a member of the KLK family, recombinant human (rh) KLK5, was monitored following pre-incubation with actives and measuring the rate of peptide bond cleavage of a synthetic substrate.
Enzymatic activity of KLK5 was measured by incubating recombinant human (rh) KLK5 protease (R&D Systems, Cat No. 1108-SE) with a specific fluorogenic peptide substrate Boc-V-P-R-AMC (R& D Systems, Cat No. ES011). The substrate is conjugated to a quenched fluorescent group. Upon cleavage of the adjacent peptide bond, the fluorescent signal is released, resulting in a measureable emission at […] when excited at 340 nm wavelength. Increase in fluorescence reading indicates an increase in rhKLK5 activity. The test compounds were reacted with recombinant rhKLK5 protease for 60 seconds followed by addition of Boc-V-P-R-AMC Fluorogenic Peptide Substrate. After 60 seconds of incubation, fluorescence was measured at 340 nm (Excitation wavelength) and 485 nm (Emission wavelength) every 1 minute for 7 minutes. Rate (kinetics) of enzyme activity was calculated as follows: Rate of enzyme activity=Change of fluorescent reading (after background correction)/Change of reaction time (min). Percent change of activity due to a test compound was calculated by comparing rate of enzyme activity in the presence of the test compound to that of a control without the test compound and statistical significance was calculated using a t-test. Additionally, the rate of activity of the compounds was compared to that of salicylic acid.

As for `O=C(O)c1ccccc1O` [salicylic acid], for the setting “salicylic acid as the benchmark”, the “percentage of KLK5 activity relative to salicylic acid” value was 100%.

Take `O=C(O)c1ccc2ccccc2c1O` [1-hydroxy-2-napthoic acid]: the “KLK5 activity compared to that of salicylic acid” value (shortened to “KLK5 activity compared to that”) is “substantially less KLK5 activity than salicylic acid”.

With `O=C(O)c1c(O)ccc2ccccc12` [2-hydroxy-1-napthoic acid], the “KLK5 activity compared to that” value was “substantially less KLK5 activity than salicylic acid”.

On to `O=C(O)c1cc2ccccc2cc1O` [3-hydroxy-2-napthoic acid], for which the “KLK5 activity compared to that” value is on record as “potent stimulator of KLK5, as it is increased beyond salicylic acid”.
